Source: patent publication US9415107B2, “Compositions and methods for the treatment of addiction and other neuropsychiatric disorders” (priority 2005, dated 2016)
“Also recorded” adds a separate entry of the source.

Legend:
[1] = tested on: adult male Wistar rats; assay: Intravenous cocaine self-administration under a multiple, alternating schedule of food reinforcement and cocaine self-administration; format: in vivo, rat; conditions: for cocaine self-administration (number of infusions): ip pretreatment; for cocaine self-administration: pretreatment with the drug alone, general statement
Protocol: Adult male Wistar rats were trained under a multiple, alternating schedule of cocaine and food self-administration. This schedule consisted of alternating periods of cocaine access and food reinforcement. In some instances, as described further below, three doses of cocaine (0.125, 0.25, or 0.50 mg/kg/infusion) were tested. Rats were also periodically trained with saline substitution (cocaine extinction) and food extinction during the same session.
More specifically, adult male Wistar rats were implanted with chronic jugular catheters. Following recovery from surgery, the rats were trained to respond under a multiple, alternating schedule of food reinforcement and cocaine self-administration. Food-maintained responding was used to control for the non-specific motor effects of the various treatments. During the food component of the schedule, the stimulus light located above the food response lever was illuminated to indicate the availability of food reinforcement. […] A 25-second timeout followed the delivery of each food pellet. During this timeout, the stimulus light was darkened and responses on the food lever were counted but had no scheduled consequences. Responding on the other (cocaine) lever during the food component also had no scheduled consequences. […] Following 15 minutes of access to food, all stimulus lights in the chamber were darkened for a 1-minute timeout. Following the timeout, the stimulus light above the cocaine response lever was illuminated to indicate the availability of cocaine (0.125, 0.25, or 0.5 mg/kg/infusion). […] A 20-second timeout period followed each infusion. […] After 15 minutes of access to cocaine and a 1-minute timeout, the rats were again allowed 15 minutes access to the food component of the schedule. Access to food and cocaine alternated in this manner every 15 minutes during the two hour behavioral sessions so that each rat was exposed to food and cocaine for four 15-minute periods each. Each behavioral session began with 15 minutes access to either food or cocaine, and this alternated daily. Stable baselines of responding were established when the total number of cocaine and food presentations, as well as the number of presentations during each of the four exposures each session, varied less than 10% for three consecutive sessions. At least three different doses of cocaine (e.g., 0.125, 0.25, and 0.5 mg/kg/infusion) were tested. Rats were first trained to self-administer 0.25 mg/kg/infusion, our standard dose of cocaine. When responding stabilized, the dose was changed to 0.125 or 0.5 mg/kg/infusion as appropriate.
Once stable baselines of responding were obtained, dose-response curves for the various compounds were individually generated for each rat. Rats were treated with each dose at least twice with a minimum of two days of baseline cocaine self-administration interspersed between each test. Each group of rats was tested with only two of the test compounds to minimize potential carryover effects. […] This rationale guided the selection of the doses of each of the compounds in the combination studies. Each experimental group consisted of between 8 and 10 rats.

[2] = tested on: adult male Wistar rats; assay: Cue-induced reinstatement of extinguished cocaine seeking (model of relapse); format: in vivo, rat; conditions: for reinstatement of extinguished cocaine seeking: pretreatment with the drug alone, general statement
Description: In our model, rats were exposed to alternating 15-minute periods of access to cocaine self-administration and food reinforcement. Food was used to control for potential nonspecific, ataxis effects of the drugs and combinations. […] The other preclinical model we used is the cue-induced reinstatement of extinguished cocaine seeking model of relapse. In this model, rats are trained to self-administer cocaine and the ability of conditioned cues in the environment to reinstate extinguished responding is assessed and taken as a measure of relapse.
The experiments described herein were designed to investigate whether or not drug combinations identified as effective in reducing cocaine self-administration would also block the ability of conditioned cues to reinstate extinguished cocaine-seeking behavior. Adult male Wistar rats were implanted with chronic jugular catheters and trained to self-administer cocaine (0.25 mg/kg/infusion) by pressing one of the response levers in the experimental chamber (i.e., the “active” or “cocaine” lever) under a fixed-ratio four (FR4) schedule of reinforcement during daily 2-hour sessions conducted 5 days per week. At the start of each session, both levers were extended into the chamber and the stimulus light above the active lever was illuminated to indicate the availability of cocaine. […] A 20-second timeout period followed each infusion. The stimulus light above the active lever and the house light and tone compound stimulus were extinguished during the timeout period, and the light above the active lever was illuminated once the timeout ended. When responding on the active lever varied less than 20% for two consecutive days, the response requirement was increased to FR2. When similar stability was observed under the FR2 schedule or reinforcement, the response requirement was increased to the final ratio of four. The criteria for stable responding under the FR4 schedule of reinforcement was a minimum of 10 days of exposure to this schedule that concluded with at least three consecutive days when responding varied by less than 10%. […] Once stable cocaine self-administration was observed, rats were exposed to extinction; the rats were placed into the behavioral chambers, but responding on the “cocaine” (active) lever produced no programmed consequences. Extinction training continued until responding decreased to less than 20% of baseline self-administration. Then reinstatement testing commended. The rats were placed into the experimental chambers, both response levers were extended into the chamber, and the stimulus light above the “active” lever was illuminated as during self-administration training. […] Responding on the “active” lever during reinstatement testing was taken as an index of cocaine-seeking behavior. Each experimental group consisted of 8 to 10 rats.

[3] = Pharmacokinetic interaction between cocaine, metyrapone and oxazepam (plasma concentrations by GCMS); conditions: presence of iv cocaine
Protocol: Adult male Wistar rats (90 to 120 days old) were implanted with chronic, indwelling jugular catheters and were allowed to recover from surgery. […] Thirty minutes following the drug combination or vehicle injection, the rats received intravenous injections of cocaine (0.25 mg/kg/infusion) every 2 minutes for 1 hour. After the final injection of cocaine, blood was collected from the catheter for the analysis of cocaine and its metabolites ecgonine methyl ester and benzoylecgonine. […] All drug concentrations were determined using GCMS procedures.

[4] = tested on: plasma corticosterone; assay: Plasma corticosterone after metyrapone pretreatment; conditions: pretreatment with metyrapone
[5] = tested on: male Wistar rats; assay: Forced Swim Test (FST), animal model of depression
[6] = low, ineffective dose of the drug alone

SMILES	cocaine self-administration (number of infusions) ([1]; high dose of the drug alone)	cocaine self-administration (number of infusions) [1, 6]	cocaine self-administration [1]	reinstatement of extinguished cocaine seeking [2]	effect on plasma concentrations of metyrapone or oxazepam [3]	minimally effective dose that reduced cocaine self-administration by at least 50% without affecting food-maintained responding ([1]; drug alone)	plasma corticosterone [4]	immobility time in the FST ([5]; chronic administration, Met50 group (metyrapone 50 mg/kg alone))	mean immobility time relative to vehicle (tolerance) ([5]; chronically treated groups that received only Ox or Met)	cocaine seeking (responding on the active lever during reinstatement) ([2]; chronic metyrapone 50 mg/kg, ip, once per day for 14 days)
CCCCN(CC)c1nc(C)nc2c1c(C)cn2-c1c(C)cc(C)cc1C [CP-154,526]	reduced cocaine self-administration	did not significantly affect cocaine self-administration	decrease	decrease						
Cc1nnc2n1-c1ccc(Cl)cc1C(c1ccccc1)=NC2 [alprazolam]	reduced cocaine self-administration	did not significantly affect cocaine self-administration	decrease	decrease						
COC(=O)[C@H]1[C@@H](OC(=O)c2ccccc2)C[C@@H]2CC[C@H]1N2C [cocaine]					did not affect					
CC(=O)N1CCN(c2ccc(OCC3COC(Cn4ccnc4)(c4ccc(Cl)cc4Cl)O3)cc2)CC1 (centres unmarked) [ketoconazole]		no effect; also recorded: did not significantly affect cocaine self-administration	decrease	decrease		25 mg/kg				
CC(C)(C(=O)c1cccnc1)c1cccnc1 [metyrapone]	reduced cocaine self-administration	did not significantly affect cocaine self-administration; also recorded: no longer affected cocaine self-administration	decrease; also recorded: significant dose-related decreases	decrease			significant dose-related decreases	showed a lessening of immobility time	equal to or exceeded the vehicle	reduced cocaine seeking to levels seen when only saline was delivered
NCc1cc(=O)[nH]o1 [muscimol]	reduced cocaine self-administration	did not significantly affect cocaine self-administration								
